Laboratory results reported in publication PMC8165102 (International Journal of Nanomedicine, 2021).
Converted amounts (≈) assume the structure as drawn.

Tests used:
[1] = tested on: guinea pig papillary muscle; settings: 0.4 µM; cited from earlier work
[2] = cited from earlier work
[3] = Surfactant-assisted rapid release of BF211@Lipo; format: physicochemical

C[C@]12CC[C@H](O)C[C@H]1CC[C@@H]1[C@@H]2CC[C@]2(C)[C@@H](c3ccc(=O)oc3)CC[C@]12O [BF, Bufalin]
effect on papillary muscle [1]: arrhythmias | solubility [2]: 10 µg/mL (≈ 25.9 µM)

Tween 80
release-promoting effect on BF211@Lipo [3]: weak and unregulated release-promoting effect
